Reference: patent US11883459B2, “Thiol isomerases inhibitors for the treatment and prevention of food allergies, allergic diseases, and inflammatory diseases” (WESTERN NEW ENGLAND UNIVERSITY, priority 2018, dated 2024)
Where a SMILES comes first, the peptide text is derived from it. Bridges are numbered along the chain shown (N, C = ends). [ ]: non-standard residue; d: D form. The star is where a group is joined. Ileψ(thiazoline)Cys = CC[C@H](C)[C@H](N)C1=N[C@H](C(=O)*)CS1; dOrn = NCCC[C@@H](N)C(=O)O

How the values were obtained:
[1] = tested on: bone marrow-derived mast cells (BMMCs); assay: cytokine production from IgE/antigen-activated bone marrow-derived mast cells (ELISA); format: cell-based, BALB/c mice; conditions: for activation of mast cells: DNP-IgE priming, DNP-BSA challenge; for production of mast cell cytokines such as TNF-a, IL-6, and IL-13: DNP-IgE/DNP-BSA
Method: In this study, bone marrow-derived mast cells (BMMCs) were treated with the known PDI inhibitors bacitracin and rutin, and mast cell activation was assessed. BMMCs were generated from BALB/c mice and grown in 10 ng/ml IL-3 and 10 ng/ml stem cell factor (SCF) for 4-8 weeks. One million BMMCs in triplicates were cultured with various concentrations of the PDI inhibitors Bacitracin (Bac) and Rutin (RH) for 1 day or 7 days. Some cells were activated by priming cells with DNP-IgE (Dinitrophenyl IgE) antibodies and challenging with DNP-BSA (dinitrophenyl-bovine serum albumin). Cytokine levels (IL-4, IL-13, TNF-alpha, and IL-6 in FIGS. 1A-1D, respectively) were assessed in the supernatants 24 hr later by ELISA. FIG. 1A-1D show treatment of mast cells with PDI inhibitor Bacitracin or Rutin inhibits the activation of mast cells and the production of mast cell cytokines such as TNF-a, IL-6, and IL-13. In this study, BMMCs were treated with the known PDI inhibitor PACMA-31, and mast cell activation was assessed. Bone marrow derived mast cells (BMMCs) were generated from BALB/c mice and grown in 10 ng/ml IL-3 and 10 ng/ml SCF for 4-8 weeks. 1 million BMMCs in triplicates were cultured with 30 μM PACMA-31 (Sigma-Aldrich) for 30 minutes. Some cells were activated by priming cells with DNP-IgE antibodies and challenging with DNP-BSA. Cytokine levels (IL-13, TNF-alpha, and IL-6 in FIGS. 2A-2C) were assessed in the supernatants 6 hrs later by ELISA. FIG. 2A-2C show treatment of mast cells with the specific PDI inhibitor PACMA-31 inhibits the activation of mast cells and the production of mast cell cytokines such as TNF-a, IL-6, and IL-13.

[2] = known property; cited from earlier work
[3] = tested on: ovalbumin-induced food allergy; assay: mouse model of ovalbumin-induced, mast cell-mediated food allergy; format: in vivo, BALB/c mice
Method: In this study, wild-type (Wt) mice were sensitized and challenged with ovalbumin and treated with PACMA-31 to determine whether PDI inhibition can modulate the development of food allergy. BALB/c mice were sensitized intraperitoneally (i.p.) with 50 μg ovalbumin (OVA) and 1 mg alum on day zero (d0) and d14. On day 28, some groups of mice were challenged intragastrically with 50 mg OVA once a day on 6 alternating days. Some groups of mice were treated with 300 μg PACMA-31 (P-31) intragastrically daily starting d27. […] The development of allergic diarrhea in this model is dependent on mast cell activation. […] In FIGS. 3A-3F, Wt Cont=wild-type, Control; Wt OVA=wild-type, ovalbumin; Wt+P31 Cont=wild-type, PACMA-31, Control; and Wt+P31 OVA=wild-type, PACMA-31, ovalbumin. FIG. 3A-3F show oral treatment of mice undergoing food allergy with PACMA-31 results in attenuation of the allergic response including mast cell protease levels which indicate mast cell activation (mMCP-1), OVA-IgE levels, and Th2 cytokine levels.

[4] = wild-type mice, ovalbumin-induced food allergy

| SMILES | activation of mast cells ([1]; BMMCs cultured with 30 μM for 30 minutes, FIGS. 2A-2C) | production of mast cell cytokines such as TNF-a, IL-6, and IL-13 ([1]; BMMCs cultured with 30 μM for 30 minutes, supernatants 6 hrs later by ELISA, FIGS. 2A-2C) | oral bioavailability [2] | mast cell protease levels which indicate mast cell activation (serum mMCP-1) ([3]; 300 μg intragastrically daily from d27, OVA-sensitized and challenged mice, FIG. 3A) | serum OVA-IgE levels ([3]; 300 μg intragastrically daily from d27, OVA-sensitized and challenged mice, FIG. 3B) | Th2 cytokine levels in supernatants of spleen cells restimulated with OVA ([3]; 300 μg intragastrically daily from d27, OVA-sensitized and challenged mice, FIGS. 3C-3F) | allergen-specific IgE [3, 4] | development of food allergy symptoms [3, 4] | mast cell activation [3, 4] | allergic diarrhea ([3]; wild-type mice, ovalbumin-induced food allergy, observed one hour after 6th challenge) | activation of mast cells ([1]; BMMCs cultured with various concentrations for 1 day or 7 days, FIGS. 1A-1D) | production of mast cell cytokines such as TNF-a, IL-6, and IL-13 ([1]; BMMCs cultured with various concentrations for 1 day or 7 days, supernatants 24 hr later by ELISA, FIGS. 1A-1D) |
| --- | --- | --- | --- | --- | --- | --- | --- | --- | --- | --- | --- | --- |
| C#CC(=O)N(c1ccc(OC)cc1OC)C(C(=O)NCC(=O)OCC)c1cccs1 (stereo not drawn) [PACMA-31, N-(2,4-dimethoxyphenyl)-N-(1-oxo-2-propyn-1-yl)-2-(2-thienyl)glycylglycine ethyl ester] | inhibits | inhibits | orally bioavailable | attenuation | attenuation | attenuation | decreases | significant attenuation | decreases | decreases | – | – |
| CC[C@H](C)[C@H](N)C1=N[C@H](C(=O)N[C@@H](CC(C)C)C(=O)N[C@H](CCC(=O)O)C(=O)N[C@H](C(=O)N[C@H]2CCCCNC(=O)[C@H](CC(N)=O)NC(=O)[C@@H](CC(=O)O)NC(=O)[C@H](Cc3cnc[nH]3)NC(=O)[C@@H](Cc3ccccc3)NC(=O)[C@H]([C@@H](C)CC)NC(=O)[C@@H](CCCN)NC2=O)[C@@H](C)CC)CS1 [Bacitracin, bacitracin] ({Ileψ(thiazoline)Cys}-L[dE]IK[dOrn]I[dF]H[dD]N; lactam 4-C) | – | – | – | – | – | – | – | – | – | – | inhibits | inhibits |
